From ChEMBL document CHEMBL4507276 (2021)

Tests used:
[1] = biological target: Atypical kinase COQ8B, mitochondrial (Homo sapiens) (UniProt Q96D53); conditions: Compound concentration 1000.0 nM
[2] = biological target: Cyclin-dependent kinase-like 1 (Homo sapiens) (UniProt Q00532); conditions: Compound concentration 1000.0 nM
[3] = biological target: Mitogen-activated protein kinase kinase kinase 14 (Homo sapiens) (UniProt Q99558); conditions: Compound concentration 1000.0 nM
[4] = biological target: Acetylcholinesterase (Homo sapiens) (UniProt P22303); test: ACHE/H Cerep selectivity data (BI); conditions: Compound concentration 20.0 uM
[5] = biological target: Leukotriene B4 receptor 1 (Homo sapiens) (UniProt Q15722); test: BLT1/H Cerep selectivity data (BI); conditions: Compound concentration 20.0 uM
[6] = biological target: Glucagon receptor (Homo sapiens) (UniProt P47871); test: GLUCAGONH_AGON Cerep selectivity data (BI); conditions: filed as agonist, Compound concentration 20.0 uM
[7] = biological target: Insulin receptor (Homo sapiens) (UniProt P06213); test: IRK(INSR)_CE Cerep selectivity data (BI); conditions: Compound concentration 20.0 uM
Cricetinae = test: ML2(MT3) Cerep selectivity data (BI); conditions: Compound concentration 20.0 uM
[8] = biological target: Endothelin receptor type B (Homo sapiens) (UniProt P24530); test: ETB/HUM Eurofins-Panlabs selectivity data (BI); conditions: Compound concentration 10.0 uM
[9] = biological target: Acetylcholine receptor subunit alpha (Homo sapiens) (UniProt P02708); test: NACH/H Eurofins-Panlabs selectivity data (BI); conditions: Compound concentration 10.0 uM
[10] = biological target: T1, Ephrin type-A receptor 8 (Homo sapiens) (UniProt P29322); test: EPHA8 Invitrogen selectivity data (BI); conditions: Compound concentration 3.0 uM
T1 sequence (whole entry): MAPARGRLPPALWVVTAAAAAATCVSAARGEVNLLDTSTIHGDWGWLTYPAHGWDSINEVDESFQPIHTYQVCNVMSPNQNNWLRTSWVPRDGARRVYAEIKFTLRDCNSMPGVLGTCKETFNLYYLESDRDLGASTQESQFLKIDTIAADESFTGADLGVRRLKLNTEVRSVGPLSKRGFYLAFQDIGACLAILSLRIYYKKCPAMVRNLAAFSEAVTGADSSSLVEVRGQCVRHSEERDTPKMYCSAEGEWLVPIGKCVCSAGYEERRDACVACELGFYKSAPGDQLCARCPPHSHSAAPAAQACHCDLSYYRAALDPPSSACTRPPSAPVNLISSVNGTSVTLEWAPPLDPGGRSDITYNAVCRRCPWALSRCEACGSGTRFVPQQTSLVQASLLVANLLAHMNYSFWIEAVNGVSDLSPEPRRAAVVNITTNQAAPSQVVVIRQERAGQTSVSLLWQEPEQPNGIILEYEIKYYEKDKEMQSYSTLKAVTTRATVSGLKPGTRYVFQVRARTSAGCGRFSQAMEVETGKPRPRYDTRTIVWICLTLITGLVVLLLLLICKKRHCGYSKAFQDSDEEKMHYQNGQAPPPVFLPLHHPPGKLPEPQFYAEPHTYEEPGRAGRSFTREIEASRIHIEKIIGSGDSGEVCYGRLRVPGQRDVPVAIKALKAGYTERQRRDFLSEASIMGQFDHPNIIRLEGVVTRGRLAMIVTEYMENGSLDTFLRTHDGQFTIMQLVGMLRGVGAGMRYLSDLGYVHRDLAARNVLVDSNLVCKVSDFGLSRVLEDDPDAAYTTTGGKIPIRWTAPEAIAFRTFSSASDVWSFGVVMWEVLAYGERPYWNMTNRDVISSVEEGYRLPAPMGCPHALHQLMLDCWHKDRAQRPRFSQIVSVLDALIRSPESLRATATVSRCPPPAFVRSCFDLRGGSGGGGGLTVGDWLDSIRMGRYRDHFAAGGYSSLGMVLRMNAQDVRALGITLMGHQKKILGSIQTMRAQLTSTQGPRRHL

[11] = system: T2, Receptor-type tyrosine-protein kinase FLT3 (Homo sapiens), P36888 [D835Y]; test: FLT3 D835Y Invitrogen selectivity data (BI); conditions: Compound concentration 3.0 uM
T2 sequence (whole entry): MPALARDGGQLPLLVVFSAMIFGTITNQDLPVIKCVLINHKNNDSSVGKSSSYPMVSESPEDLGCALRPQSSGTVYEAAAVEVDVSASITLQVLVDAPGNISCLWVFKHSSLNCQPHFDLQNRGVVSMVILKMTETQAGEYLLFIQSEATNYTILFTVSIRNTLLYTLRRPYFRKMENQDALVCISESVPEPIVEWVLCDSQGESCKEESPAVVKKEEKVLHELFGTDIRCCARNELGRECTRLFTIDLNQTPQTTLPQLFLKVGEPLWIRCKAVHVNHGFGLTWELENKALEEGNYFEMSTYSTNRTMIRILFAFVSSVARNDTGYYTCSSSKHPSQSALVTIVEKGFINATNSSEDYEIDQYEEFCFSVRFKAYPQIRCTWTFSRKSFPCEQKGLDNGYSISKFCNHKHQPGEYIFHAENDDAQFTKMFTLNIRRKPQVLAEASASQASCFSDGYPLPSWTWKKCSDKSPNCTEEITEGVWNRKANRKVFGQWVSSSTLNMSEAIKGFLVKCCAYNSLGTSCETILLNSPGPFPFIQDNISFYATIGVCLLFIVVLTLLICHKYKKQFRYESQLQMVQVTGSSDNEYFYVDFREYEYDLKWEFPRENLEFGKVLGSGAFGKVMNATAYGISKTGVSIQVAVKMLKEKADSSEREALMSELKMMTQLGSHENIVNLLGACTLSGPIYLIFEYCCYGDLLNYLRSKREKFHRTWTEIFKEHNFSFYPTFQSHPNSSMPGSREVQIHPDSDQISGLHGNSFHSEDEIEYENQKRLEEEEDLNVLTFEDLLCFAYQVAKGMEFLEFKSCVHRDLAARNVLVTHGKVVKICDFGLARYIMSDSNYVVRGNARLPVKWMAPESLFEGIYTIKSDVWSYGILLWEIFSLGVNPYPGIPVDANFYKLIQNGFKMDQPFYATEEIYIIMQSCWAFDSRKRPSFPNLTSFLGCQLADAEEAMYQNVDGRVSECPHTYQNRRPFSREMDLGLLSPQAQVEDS

[12] = biological target: Dual specificity mitogen-activated protein kinase kinase 2 (Homo sapiens) (UniProt P36507); test: MAP2K2 Invitrogen selectivity data (BI); conditions: Compound concentration 3.0 uM
[13] = biological target: Mitogen-activated protein kinase kinase kinase kinase 4 (Homo sapiens) (UniProt O95819); test: MAP4K4 Invitrogen selectivity data (BI); conditions: Compound concentration 3.0 uM
[14] = biological target: Serine/threonine-protein kinase pim-2 (Homo sapiens) (UniProt Q9P1W9); test: PIM2 Invitrogen selectivity data (BI); conditions: Compound concentration 3.0 uM
[15] = biological target: Ribosomal protein S6 kinase alpha-1 (Homo sapiens) (UniProt Q15418); test: RPS6KA1 Invitrogen selectivity data (BI); conditions: Compound concentration 3.0 uM
[16] = biological target: Serine/threonine-protein kinase 33 (Homo sapiens) (UniProt Q9BYT3); test: STK33 Invitrogen selectivity data (BI); conditions: Compound concentration 3.0 uM

Measured: residual activity

Chain of Dual specificity mitogen-activated protein kinase kinase 2 (Homo sapiens) (P36507 whole entry): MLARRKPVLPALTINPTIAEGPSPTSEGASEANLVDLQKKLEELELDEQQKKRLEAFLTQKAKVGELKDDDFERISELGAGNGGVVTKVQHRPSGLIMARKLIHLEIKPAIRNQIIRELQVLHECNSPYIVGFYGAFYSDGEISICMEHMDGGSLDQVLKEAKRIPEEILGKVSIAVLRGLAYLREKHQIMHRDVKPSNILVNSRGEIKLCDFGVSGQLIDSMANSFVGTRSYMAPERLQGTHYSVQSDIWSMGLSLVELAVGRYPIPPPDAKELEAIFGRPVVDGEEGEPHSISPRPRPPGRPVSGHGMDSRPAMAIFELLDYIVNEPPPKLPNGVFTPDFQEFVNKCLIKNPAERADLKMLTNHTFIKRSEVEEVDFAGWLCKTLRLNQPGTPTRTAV
Chain of Ribosomal protein S6 kinase alpha-1 (Homo sapiens) (Q15418 whole entry): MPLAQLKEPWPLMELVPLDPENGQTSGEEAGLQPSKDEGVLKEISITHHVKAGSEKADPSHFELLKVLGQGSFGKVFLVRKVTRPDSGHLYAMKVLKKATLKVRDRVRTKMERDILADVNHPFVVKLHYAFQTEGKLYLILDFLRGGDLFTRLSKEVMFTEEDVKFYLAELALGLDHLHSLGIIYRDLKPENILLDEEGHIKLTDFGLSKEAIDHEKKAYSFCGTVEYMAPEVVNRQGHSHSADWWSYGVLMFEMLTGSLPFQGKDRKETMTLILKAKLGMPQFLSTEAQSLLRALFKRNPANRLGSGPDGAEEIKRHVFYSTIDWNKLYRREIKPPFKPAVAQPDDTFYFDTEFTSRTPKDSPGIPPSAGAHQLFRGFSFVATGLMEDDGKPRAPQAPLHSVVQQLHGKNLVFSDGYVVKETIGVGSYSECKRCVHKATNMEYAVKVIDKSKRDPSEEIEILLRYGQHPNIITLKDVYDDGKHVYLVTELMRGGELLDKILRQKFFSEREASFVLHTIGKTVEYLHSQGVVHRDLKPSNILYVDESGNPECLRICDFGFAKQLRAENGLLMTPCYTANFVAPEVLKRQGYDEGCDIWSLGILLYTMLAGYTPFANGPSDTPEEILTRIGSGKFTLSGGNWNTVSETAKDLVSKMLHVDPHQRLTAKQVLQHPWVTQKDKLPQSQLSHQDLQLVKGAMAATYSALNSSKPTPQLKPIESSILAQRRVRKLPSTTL
Chain of Mitogen-activated protein kinase kinase kinase 14 (Homo sapiens) (Q99558 whole entry, looked up): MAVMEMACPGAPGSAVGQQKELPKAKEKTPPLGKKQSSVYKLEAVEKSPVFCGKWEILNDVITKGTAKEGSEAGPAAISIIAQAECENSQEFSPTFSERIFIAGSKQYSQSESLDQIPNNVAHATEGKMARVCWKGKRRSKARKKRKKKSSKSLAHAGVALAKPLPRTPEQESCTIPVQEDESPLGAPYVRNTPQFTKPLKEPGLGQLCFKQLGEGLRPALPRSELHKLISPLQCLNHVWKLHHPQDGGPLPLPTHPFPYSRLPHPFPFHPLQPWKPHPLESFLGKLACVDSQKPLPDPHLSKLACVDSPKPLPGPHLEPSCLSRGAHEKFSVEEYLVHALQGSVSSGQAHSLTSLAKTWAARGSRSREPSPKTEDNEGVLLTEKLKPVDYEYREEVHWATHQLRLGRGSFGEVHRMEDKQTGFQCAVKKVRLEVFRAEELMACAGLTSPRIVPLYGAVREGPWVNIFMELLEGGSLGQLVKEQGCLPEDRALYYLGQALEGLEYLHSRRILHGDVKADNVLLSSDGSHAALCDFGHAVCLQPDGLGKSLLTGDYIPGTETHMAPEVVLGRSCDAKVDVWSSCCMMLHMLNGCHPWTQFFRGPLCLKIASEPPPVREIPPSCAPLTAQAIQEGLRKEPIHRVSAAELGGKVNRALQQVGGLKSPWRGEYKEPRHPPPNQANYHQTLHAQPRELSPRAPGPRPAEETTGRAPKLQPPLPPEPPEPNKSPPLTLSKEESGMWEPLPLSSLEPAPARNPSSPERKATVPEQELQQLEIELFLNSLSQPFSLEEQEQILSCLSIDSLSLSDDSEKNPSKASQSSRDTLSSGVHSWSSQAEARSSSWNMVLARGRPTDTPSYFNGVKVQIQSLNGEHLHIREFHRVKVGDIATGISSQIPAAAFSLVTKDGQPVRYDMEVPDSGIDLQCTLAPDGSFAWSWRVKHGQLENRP
Chain of Cyclin-dependent kinase-like 1 (Homo sapiens) (Q00532 whole entry): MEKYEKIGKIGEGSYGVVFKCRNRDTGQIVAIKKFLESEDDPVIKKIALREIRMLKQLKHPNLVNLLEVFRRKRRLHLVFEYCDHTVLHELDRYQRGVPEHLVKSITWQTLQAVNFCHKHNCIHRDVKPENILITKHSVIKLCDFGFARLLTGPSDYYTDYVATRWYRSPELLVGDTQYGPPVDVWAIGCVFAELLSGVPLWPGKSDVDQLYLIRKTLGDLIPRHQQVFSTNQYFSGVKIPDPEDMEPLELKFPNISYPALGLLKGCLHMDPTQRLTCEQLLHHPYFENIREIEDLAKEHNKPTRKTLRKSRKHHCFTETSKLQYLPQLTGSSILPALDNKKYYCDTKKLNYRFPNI
Chain of Endothelin receptor type B (Homo sapiens) (P24530 whole entry): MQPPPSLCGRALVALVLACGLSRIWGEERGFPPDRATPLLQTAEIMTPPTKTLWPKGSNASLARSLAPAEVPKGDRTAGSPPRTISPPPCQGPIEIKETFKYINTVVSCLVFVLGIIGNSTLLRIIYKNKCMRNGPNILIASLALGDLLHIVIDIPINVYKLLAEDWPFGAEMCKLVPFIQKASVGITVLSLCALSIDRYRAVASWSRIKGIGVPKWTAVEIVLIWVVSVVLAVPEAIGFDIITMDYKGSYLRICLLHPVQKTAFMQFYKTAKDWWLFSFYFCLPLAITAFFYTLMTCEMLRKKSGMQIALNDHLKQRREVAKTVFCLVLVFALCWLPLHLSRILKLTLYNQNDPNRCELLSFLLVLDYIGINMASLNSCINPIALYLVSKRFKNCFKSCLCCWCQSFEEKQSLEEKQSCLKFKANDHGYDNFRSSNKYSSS
Chain of Mitogen-activated protein kinase kinase kinase kinase 4 (Homo sapiens) (O95819 2-1239 limits assumed): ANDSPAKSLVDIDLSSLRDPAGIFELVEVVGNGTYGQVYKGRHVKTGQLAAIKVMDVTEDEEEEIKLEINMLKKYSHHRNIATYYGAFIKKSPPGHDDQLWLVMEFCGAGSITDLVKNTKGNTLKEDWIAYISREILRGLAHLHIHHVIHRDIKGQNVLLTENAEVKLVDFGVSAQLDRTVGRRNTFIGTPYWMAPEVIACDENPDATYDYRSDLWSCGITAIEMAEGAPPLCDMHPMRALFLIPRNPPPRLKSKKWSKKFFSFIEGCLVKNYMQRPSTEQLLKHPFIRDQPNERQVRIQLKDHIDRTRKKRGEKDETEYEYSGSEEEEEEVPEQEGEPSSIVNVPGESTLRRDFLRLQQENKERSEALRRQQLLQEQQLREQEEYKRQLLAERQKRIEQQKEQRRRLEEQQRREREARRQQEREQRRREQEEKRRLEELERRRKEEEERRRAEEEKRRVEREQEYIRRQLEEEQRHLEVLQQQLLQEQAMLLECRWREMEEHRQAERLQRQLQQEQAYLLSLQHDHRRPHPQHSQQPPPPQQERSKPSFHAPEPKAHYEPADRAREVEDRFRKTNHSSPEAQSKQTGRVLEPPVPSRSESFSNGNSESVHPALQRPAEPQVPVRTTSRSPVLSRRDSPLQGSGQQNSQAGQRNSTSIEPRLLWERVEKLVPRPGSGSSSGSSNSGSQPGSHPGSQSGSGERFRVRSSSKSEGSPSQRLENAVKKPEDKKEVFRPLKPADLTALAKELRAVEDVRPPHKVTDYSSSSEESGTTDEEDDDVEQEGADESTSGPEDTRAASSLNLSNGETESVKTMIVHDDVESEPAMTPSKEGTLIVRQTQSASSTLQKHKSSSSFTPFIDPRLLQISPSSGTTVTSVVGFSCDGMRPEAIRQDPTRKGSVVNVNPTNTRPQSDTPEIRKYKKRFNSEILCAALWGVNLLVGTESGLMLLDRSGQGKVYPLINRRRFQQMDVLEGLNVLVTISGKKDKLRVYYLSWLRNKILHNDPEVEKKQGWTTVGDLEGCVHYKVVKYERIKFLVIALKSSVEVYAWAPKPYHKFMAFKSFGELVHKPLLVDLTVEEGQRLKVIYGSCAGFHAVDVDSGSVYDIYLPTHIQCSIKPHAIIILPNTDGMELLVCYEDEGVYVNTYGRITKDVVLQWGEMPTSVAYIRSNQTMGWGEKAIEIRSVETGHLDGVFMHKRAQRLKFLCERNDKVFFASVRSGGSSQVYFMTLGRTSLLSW
Chain of Glucagon receptor (Homo sapiens) (P47871 whole entry): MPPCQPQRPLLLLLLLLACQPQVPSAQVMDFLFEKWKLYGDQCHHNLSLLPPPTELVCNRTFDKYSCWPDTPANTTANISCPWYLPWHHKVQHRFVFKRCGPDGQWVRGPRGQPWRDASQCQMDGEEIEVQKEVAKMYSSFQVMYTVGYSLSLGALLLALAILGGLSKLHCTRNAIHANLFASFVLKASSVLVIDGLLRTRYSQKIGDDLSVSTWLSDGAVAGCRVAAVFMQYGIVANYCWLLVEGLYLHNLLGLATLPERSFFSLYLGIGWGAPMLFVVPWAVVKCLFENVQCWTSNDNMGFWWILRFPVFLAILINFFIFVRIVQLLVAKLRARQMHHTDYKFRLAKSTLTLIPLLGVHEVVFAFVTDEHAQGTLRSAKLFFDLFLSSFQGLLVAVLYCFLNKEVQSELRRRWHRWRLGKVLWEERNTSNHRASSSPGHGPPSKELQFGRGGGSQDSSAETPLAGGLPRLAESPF
Chain of Serine/threonine-protein kinase pim-2 (Homo sapiens) (Q9P1W9 whole entry, looked up): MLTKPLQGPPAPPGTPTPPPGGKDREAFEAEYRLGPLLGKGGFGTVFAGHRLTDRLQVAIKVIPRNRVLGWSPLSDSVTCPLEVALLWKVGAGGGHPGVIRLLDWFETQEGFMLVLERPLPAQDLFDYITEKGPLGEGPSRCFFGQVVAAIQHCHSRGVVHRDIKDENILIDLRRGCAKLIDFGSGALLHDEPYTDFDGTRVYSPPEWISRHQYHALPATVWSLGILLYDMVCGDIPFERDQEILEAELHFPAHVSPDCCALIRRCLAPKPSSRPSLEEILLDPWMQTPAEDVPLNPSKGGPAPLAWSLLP

CN(C)C(=O)Cn1cc(-c2nc(C3(c4ccc(-c5cnc(N)nc5)cc4)CC3)no2)cn1 [BI 0153]
inactive: [1] 100% | [2] 100% | [3] 83%

CN(C)C(=O)Cn1cc(-c2nc([C@@](C)(c3ccc(-c4cnc(N)nc4)cc3)C3CC3)no2)cn1 [BI 665915]
inactive: [4] 98% | [5] 100% | [6] 107% | [7] 94% | Cricetinae 70% | [8] 98% | [9] 97% | [10] 98.5% | [11] 79% | [12] 96% | [13] 96.5% | [14] 101% | [15] 96% | [16] 101%
